A word on the EC50: it is the midpoint of the concentration-response curve.

In data set [1] the target is T1, MrgprC11 (Mus musculus, UniProt Q8CIP3).
T1 construct: An MrgprC11 cDNA in pcDNA3.1 vector was transfected into CHO cells; expressed in transfected cells; host or cells: CHO cells, transient transfection with Lipofectamine 2000
T1 sequence (Q8CIP3 1-322): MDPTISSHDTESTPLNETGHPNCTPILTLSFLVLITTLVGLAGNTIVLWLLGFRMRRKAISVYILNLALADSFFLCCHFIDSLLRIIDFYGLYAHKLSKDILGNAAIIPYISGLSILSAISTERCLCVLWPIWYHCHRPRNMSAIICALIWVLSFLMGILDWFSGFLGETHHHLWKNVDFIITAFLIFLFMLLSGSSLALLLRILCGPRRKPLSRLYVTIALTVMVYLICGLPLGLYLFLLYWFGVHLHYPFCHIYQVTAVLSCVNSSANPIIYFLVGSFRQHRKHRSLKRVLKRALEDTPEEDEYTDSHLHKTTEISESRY
Description: Ca2+ response in MrgprC11 transfected CHO cells. It is filed as cell-based. As for the experimental part: CHO cells were cultured in DMEM supplemented with 10% FBS and 1% penicillin and streptomycin at 37°C in a 5% CO2 atmosphere. One day before transfection, CHO cells were plated in a 60 mm cell culture dish at a concentration of 1×10^5 cells/cm^2 and grown without antibiotics. An MrgprC11 cDNA in pcDNA3.1 vector was transfected into CHO cells using Lipofectamine™ 2000 (Invitrogen) prior to transfer to coverslips for experiments. Coverslips were coated with 0.1 mg/ml poly-D-lysine (from 2 mg/ml stock) and incubated for 1 hr at room temperature, after which the coating solution was removed and the coverslips were washed twice with double distilled water. CHO cells were seeded on coverslips at a concentration of 1×10^5 cells/cm^2 6 hr after transfection. Transfected cells were incubated for 24 hr prior to Ca^2+ imaging.
(§1) 16HBE14o- cells or CHO cells were loaded with fura 2-acetomethoxyl ester (CalBiochem or Molecular Probes) for 30 min at room temperature. Cells were washed with HBSS and allowed to sit for at least 20 min prior to digital imaging. For activation and desensitization assay experiments using 16HBE14o- cells, [Ca^2+]i was measured as previously described. Experiments consisted of 20 sec of recording of cells in HBSS to determine resting [Ca^2+]i, followed by a 10 sec wash to introduce ligand and up to 10 min of recording for ligand washes required for desensitization experiments. Briefly, fura-2 fluorescence was observed on an Olympus IX70 microscope with a 40X oil immersion objective after alternating excitation between 340 and 380 nm by a 75 W Xenon lamp linked to a Delta Ram V illuminator (PTI) and a gel optic line. Intracellular Ca^2+ concentration ([Ca^2+]i) for each individual cell in the field of view was calculated by ratiometric analysis of fura-2 fluorescence using equations originally published in [31]. Individual ratios were calculated every sec throughout the experiments. [Ca^2+]i traces over time are averaged [Ca^2+]i of all cells within a field of view (80–120) and are representative of at least 3 experiments. Cells were considered activated by the ligand if their resting [Ca^2+]i was increased above a 200 nM threshold, a 2–4 fold increase above typical resting values. Percent activation graphs are determined from 3–6 experiments for each ligand concentration. Time to threshold in individual cells represent between 200–400 cells from at least 3 experiments at each ligand concentration. Ca^2+ imaging of CHO cells was similar; each ligand concentration tested included at least 3 experiments and a minimum of 200 cells analyzed during each experiment.

Data set [2] has as its target T2, PAR2 (Homo sapiens, UniProt P55085).
T2 construct: 16HBE14o- cells on E-plates in growth medium; endogenous in cells; host or cells: 16HBE14o- cells
T2 sequence (P55085 26-397): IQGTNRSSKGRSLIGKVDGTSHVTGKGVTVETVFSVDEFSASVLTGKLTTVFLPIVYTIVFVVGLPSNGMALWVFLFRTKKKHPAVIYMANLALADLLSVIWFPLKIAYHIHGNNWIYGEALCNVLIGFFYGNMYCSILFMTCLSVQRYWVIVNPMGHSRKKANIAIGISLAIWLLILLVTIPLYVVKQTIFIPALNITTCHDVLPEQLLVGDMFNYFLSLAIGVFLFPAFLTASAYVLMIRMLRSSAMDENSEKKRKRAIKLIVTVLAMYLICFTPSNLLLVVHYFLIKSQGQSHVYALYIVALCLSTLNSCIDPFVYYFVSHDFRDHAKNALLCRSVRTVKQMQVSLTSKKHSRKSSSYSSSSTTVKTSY
On the set-up: method as in PMID 21467041. The following applies: 16HBE14o- cells; read-out: RTCA EC50; cited from earlier work.

The target of data set [3] is T2, PAR2. Kind of data set: Ca2+ desensitization assay in 16HBE14o- cells with 2at-LIGRL-NH2. It is filed as cell-based. The following applies: compound at its activating concentration, ATP 5 µM. As for the experimental part:
as §1, with “[Ca^2+]i traces over time are averaged [Ca^2+]i of all cells within a field of view (80–120) and are representative of at least 3 experiments. Cells were considered activated by the ligand if their resting [Ca^2+]i was increased above a 200 nM threshold, a 2–4 fold increase above typical resting values.” left out, “Time to threshold in individual cells represent between 200–400 cells from at least 3 experiments at each ligand concentration.” left out, “experiment. […]” for “experiment.”

On the set-up of data set [4]: method as in PMID 20873792. As to conditions: at high concentrations (100 µM); cited from earlier work.
Data set [5] addresses T1, MrgprC11. More on the design: method as in PMID 21775281. The following applies: cited from earlier work.

Turning to 2at-LIGRL-NH2 [reference compound], the “Ca2+ response (% of cells)” value in data set [1] (1 µM) was “no response”; in data set [1] (10 µM), 10%. The half-maximal effective concentration (EC50) in data set [2] is 310 nM. For the same compound, in data set [3], the “Ca2+ response after PAR2 desensitization with 50 µM 2at-LIGRL-NH2” value is “did not result in an increase of [Ca^2+]i”.

On to 6-aminonicotinyl-LIGRL-NH2, for which, in data set [2], the EC50 is 430 nM.

In the case of `Nc1ncnc2c1ncn2[C@@H]1O[C@H](COP(=O)(O)OP(=O)(O)OP(=O)(O)O)[C@@H](O)[C@H]1O` [ATP], the “Ca2+ response after PAR2 desensitization with 50 µM 2at-LIGRL-NH2” value in data set [3] was “remained an effective agonist”.

Consider `CCC(C)C(NC(=O)C(CC1CCCCC1)NC(=O)c1ccno1)C(N)=O` (stereo not drawn) [Compound 5io-Cha-I-NH2], for which the solubility entry in data set [4] was “lack of solubility”.

For the compound SLIGR-NH2, the MrgprC11 signaling result in data set [5] is “lost MrgprC11 signaling capacity”.

Turning to SLIGRL-NH2 (H-SLIGRL-NH2), the EC50 in data set [5] (read-out: MrgprC11 activation EC50) is 10000 nM.

The values above are taken from article PMC4057235, “Development and Evaluation of Small Peptidomimetic Ligands to Protease-Activated Receptor-2 (PAR2) through the Use of Lipid Tethering” (PLoS ONE, 2014).
